In test [1] the test system is H3K9me2 in HCT116 cells. Put plainly: HCT116 H3K9me2 in-cell western assay. As to conditions: Homo sapiens, HCT-116, 72 h, HCT116 cells, 72 hours incubation; read-out: H3K9me2 ICW IC50. It counts as cell-based. Summed up:
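HCT116 cells (2,000/well) were treated for 72 h at 37° C, 5% CO2, with ten two-fold dilutions from 10 μM in duplicate. After PFA fixation, cells were stained overnight at 4° C with anti-H3K9me2, then with an 800 CW secondary plus DRAQ5.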

Test [2] concerns the target T1, human EHMT1 982-1266 (Homo sapiens, UniProt Q9H9B1).
T1 sequence (Q9H9B1 982-1266): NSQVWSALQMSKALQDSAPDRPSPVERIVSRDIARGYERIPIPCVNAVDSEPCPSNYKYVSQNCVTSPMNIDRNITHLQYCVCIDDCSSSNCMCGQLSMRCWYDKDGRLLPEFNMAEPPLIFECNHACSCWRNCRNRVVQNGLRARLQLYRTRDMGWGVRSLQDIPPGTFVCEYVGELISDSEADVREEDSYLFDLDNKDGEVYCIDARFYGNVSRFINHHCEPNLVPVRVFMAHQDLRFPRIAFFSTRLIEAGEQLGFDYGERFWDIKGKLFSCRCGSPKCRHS
Kind of test: EHMT1 enzyme assay on histone peptide substrate (3H-SAM SPA). As to conditions: EHMT1 IC50, recombinant human EHMT1 982-1266, histone peptide substrate.

Test [3] has as its target T2, human EHMT2 913-1193 (Homo sapiens, UniProt Q96KQ7).
T2 sequence (Q96KQ7 913-1193): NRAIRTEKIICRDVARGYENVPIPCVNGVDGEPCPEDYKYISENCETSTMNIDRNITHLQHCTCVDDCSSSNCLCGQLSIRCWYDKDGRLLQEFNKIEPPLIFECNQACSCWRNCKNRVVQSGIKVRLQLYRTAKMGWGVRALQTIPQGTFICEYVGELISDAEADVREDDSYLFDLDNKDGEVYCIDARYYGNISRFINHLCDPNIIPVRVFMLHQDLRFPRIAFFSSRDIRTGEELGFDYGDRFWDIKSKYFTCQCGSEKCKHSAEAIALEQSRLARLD
Put plainly: EHMT2 enzyme assay on histone peptide substrate (3H-SAM SPA). As to conditions: EHMT2 IC50, recombinant human EHMT2 913-1193, histone peptide substrate.

The record followed here is patent US20240368139A1, “NOVEL MODULATORS OF EHMT1 AND EHMT2 AND THERAPEUTIC USE THEREOF” (Tango Therapeutics, Inc., priority 2021, published 2024).

Molecules are shown by their SMILES.

In general, IC50 refers to the concentration that gives 50% inhibition.

Regarding `[2H]Cc1nc(Nc2cc3c(c(C4=CCNCCC4)c2)OCO3)nc(NCC([2H])([2H])[2H])c1F` [Compound 233], the IC50 in test [1] is 500 to 2000 nM; in test [2], 100 to 500 nM; in test [3] it was 500 to 2000 nM.

Regarding `CNc1cc(C)nc(Nc2cc3c(c(N4C[C@H]5CNC[C@H]5C4)c2F)OCC3)n1` [Compound 351, N2-[6-fluoro-7-[rac-(3aS,6aR)-2,3,3a,4,6,6a-hexahydro-1H-pyrrolo[3,4-c]pyrrol-5-yl]-2,3-dihydrobenzofuran-5-yl]-N4,6-dimethyl-pyrimidine-2,4-diamine], the IC50 was 100 to 500 nM in test [1], under 100 nM in test [2] and 100 to 500 nM in test [3].

Take `CNc1cc(C)nc(Nc2cc3c(c(N4CCCNCC4)c2)OCCC3)n1` [Compound 339]: the IC50 in test [1] lay in the range of 100 to 500 nM; in test [2] it was 100 to 500 nM; in test [3] it was 500 to 2000 nM.

For `CNc1cc(C)nc(Nc2cc3c(c(C4=CCNCCC4)c2O)OCC3)n1` [Compound 198], the IC50 is 100 to 500 nM in test [1], under 100 nM in test [2] and 100 to 500 nM in test [3].

With `[2H]Cc1nc(Nc2cc3c(c(C4=CCNCCC4)c2)OCC3)nc(NCC([2H])([2H])[2H])c1F` [Compound 237], the IC50 fell in the range of 100 to 500 nM in test [1], 100 to 500 nM in test [2] and 500 to 2000 nM in test [3].

For `CNc1cc(C)nc(Nc2cc3c(c(C4CCCNCC4)c2)OCO3)n1` (stereo not drawn) [Compound 343], the IC50 in test [1] fell in the range of 100 to 500 nM; in test [2], 100 to 500 nM; in test [3], 500 to 2000 nM.

For the molecule `CNc1cc(C)nc(Nc2cc3c(c(C4=CCN(C)CCC4)c2F)OCC3C)n1` (stereo not drawn) [Compound 181], the results for the half-inhibitory concentration (IC50) in test [1], in test [2] and in test [3] were 100 to 500 nM, under 100 nM and 100 to 500 nM, respectively.

On to `CNc1cc(C)nc(Nc2cc3c(c(C4=CCNCCC4)c2)OCC3)c1` [Compound 288], for which the IC50 is 100 to 500 nM in test [1], under 100 nM in test [2] and under 100 nM in test [3].

On to `COCCNc1cc(C)nc(Nc2cc3c(c(C4=CCNCCC4)c2)OCC3)c1` [Compound 305], for which the IC50 in test [1] is 500 to 2000 nM; in test [2] it was 100 to 500 nM; in test [3] it was 100 to 500 nM.

`CNc1cc(C)nc(Nc2cc3c(c([C@H]4C[C@H]5CNC[C@H]5C4)c2)OCO3)n1` [Compound 342]: the results for the half-inhibitory concentration (IC50) in test [1], in test [2] and in test [3] were 500 to 2000 nM, 100 to 500 nM and 500 to 2000 nM, respectively.

As to `CNc1cc(C)nc(Nc2cc3c(c(C4=CCNC[C@@H](O)C4)c2F)OC[C@H]3C)n1` (stereo in doubt) [Compound 420, rel-(3S)-5-[rel-(3S)-6-fluoro-3-methyl-5-[[4-methyl-6-(methylamino)pyrimidin-2-yl]amino]-2,3-dihydrobenzofuran-7-yl]-2,3,4,7-tetrahydro-1H-azepin-3-ol], the IC50 in test [1], in test [2] and in test [3] was under 100 nM throughout.

With `CNc1cc(C)nc(Nc2cc(OCCCN3CCCC3)c3c(c2)N(Cc2ccccc2)CCO3)n1` [Compound 127, N2-[4-benzyl-8-(3-pyrrolidin-1-ylpropoxy)-2,3-dihydro-1,4-benzoxazin-6-yl]-N4,6-dimethyl-pyrimidine-2,4-diamine], the values for the IC50 in test [1], in test [2] and in test [3] were 500 to 2000 nM, 100 to 500 nM and 500 to 2000 nM, respectively.

Regarding `[2H]C([2H])([2H])CNc1cc(C)nc(Nc2cc3c(c(C4=CCNCCC4)c2)OCCC3)n1` [Compound 263], the IC50 was 100 to 500 nM in test [1], under 100 nM in test [2] and under 100 nM in test [3].

For the molecule `CNc1cc(C)nc(Nc2cc3c(c(C4=CCNC[C@H](O)C4)c2F)OC[C@@H]3C)n1` (stereo in doubt) [Compound 401, rel-(3R)-5-[rel-(3R)-6-fluoro-3-methyl-5-[[4-methyl-6-(methylamino)pyrimidin-2-yl]amino]-2,3-dihydrobenzofuran-7-yl]-2,3,4,7-tetrahydro-1H-azepin-3-ol], the figures for the IC50 in test [1], in test [2] and in test [3] were under 100 nM, under 100 nM and 100 to 500 nM, respectively.

Regarding `CNc1cc(C)nc(Nc2cc3c(c(C4=CCN(C(C)C)CCC4)c2F)OCC3)n1` [Compound 195], the IC50 in test [1] is under 100 nM; in test [2] it was under 100 nM; in test [3], 100 to 500 nM.

Regarding `CCNc1nc(Nc2cc3c(c(C4=CCNCCC4)c2F)OCC3)nc(C)c1F` [Compound 239], the values for the concentration for half-maximal inhibition (IC50) in test [1], in test [2] and in test [3] were 100 to 500 nM, under 100 nM and 100 to 500 nM, respectively.
